From patent US20090042993A1, “IDENTIFICATION OF NOVEL POST-TRANSLATIONAL PROTEIN MODIFICATIONS” (priority 2007, published 2009) come the findings set out here.

Common to all, as to assay type: biochemical, Chinese Hamster
The subject of test [1] is ER membrane ATP transport. The experiment in a line: ATP transport into intact ER vesicles. Conditions: vesicles from control and ceramide-treated cells, 5 and 10 μM solute. An excerpt:
(§1) Intact vesicles from the endoplasmic reticulum (ER) and the Golgi apparatus were purified on a 10-34% Iodixanol (OptiPrep; Axis-Shield, Norway) continuous gradient as described (Puglielli et al., 2001, Nat. Cell Biol. 3: 905-912). The complete migration of subcellular markers in a typical gradient is shown in Costantini et al., 2006, EMBO J. 25: 1997-2006; Puglielli et al., 2001, Nat. Cell Biol. 3: 905-912. Fractions enriched in ER and Golgi markers (also called ER or Golgi vesicles herein) were separated, pooled together, and resuspended in isotonic/cryogenic buffer (0.25 M sucrose and 10 mM Tris-HCl, pH 7.4) in the presence of protease inhibitors (Roche). Latency of ER and Golgi vesicles was determined with the glucose-6-phosphatase (Clairmont et al., 1992, J. Biol. Chem. 267: 3983-3900) and the sialyl-transferase (Puglielli and Hirschberg, 1999, J. Biol. Chem. 274: 35596-35600) methods, respectively. The purity of the preparation was further confirmed by assaying the above enzymatic activities, together with transport of CMP-sialic acid. […]
Briefly, assays were performed in 100 μl final volume (isotonic/cryogenic buffer) using 25 to 50 μg of ER/Golgi vesicles protein. […] Pellets were then dissolved in 0.6 mL of NaOH 1 N; after neutralization with 0.2 mL of 4N HCl, samples were counted by scintillation spectrometry. […]

In test [2] the test system is lysine deacetylase activity in Golgi vesicles. The experiment in a line: Membrane deacetylase activity, in vitro deacetylation of acetylated BACE1-myc by Golgi vesicles. Conditions: vesicles from ceramide-treated cells, 0.2% Triton X-100, 30° C.
Description: as §1, with “respectively.” for “respectively. The purity of the preparation was further confirmed by assaying the above enzymatic activities, together with transport of CMP-sialic acid.”
BACE1 was eluted by lowering the pH to 2.0 and recovered by centrifuging at 3000 rpm for 2 min. […] BACE1 was then immunoprecipitated and counted on a liquid scintillation counter. […]
(§2) FIG. 6 illustrates how acetyltransferase and deacetylase activities exist in the lumen of ER and Golgi apparatus, respectively. […] The reaction was stopped by lowering the temperature; BACE1 was then purified again and analyzed on a scintillation liquid counter. […]

Test [3] deals with acetyl-CoA:lysine acetyltransferase activity in ER vesicles. The experiment in a line: Membrane acetyltransferase activity, in vitro acetylation of BACE1-myc by ER vesicles. Conditions: vesicles from control or ceramide-treated cells, 0.2% Triton X-100, 30° C.
Description: as §1, with “respectively.” for “respectively. The purity of the preparation was further confirmed by assaying the above enzymatic activities, together with transport of CMP-sialic acid.”
The reaction was stopped by adding 200 μl of ice-cold buffer and immediate immersion in ice; BACE1 was then immunoprecipitated and counted on a liquid scintillation counter. […]
as §2

`CCCCCCCCCCCCC/C=C/[C@@H](O)[C@H](CO)NC(=O)CCCCC` [ceramide, C6-ceramide]: the “ATP transport into ER vesicles” value in test [1] was “no apparent difference”. In test [2], the “in vitro deacetylation of BACE1 by Golgi vesicles” value was “increased deacetylation”. For the same compound, the “in vitro acetylation of BACE1 by ER membrane vesicles” value in test [3] is listed as “no apparent difference”.
